What was measured:
4IC cells = assay: Cell cycle profile of 4IC TNBC cells with TRAF3IP2 knockdown and/or Paclitaxel; type: cell-based, human; details: 4IC cells in vitro, vs 4ICControl shRNA
Description: FIG. 7. […] Cell cycle profiles of 4ICControl shRNA, 4ICControl shRNA+Paclitaxel, 4ICTRAF3IP2 KD and 4ICTRAF3IP2 KD+Paclitaxel (A-D).
Paclitaxel has been previously shown to arrest cell cycle progression at the G2/M phase, resulting in apoptosis.

4IC tumors = assay: Effect of targeting TRAF3IP2 on chemoresistance in vivo (4IC tumors, Paclitaxel combination); design: species or system mice; details: vs SCR-AO group
Protocol: FIG. 16. Effect of targeting TRAF3IP2 on chemoresistance in vivo. Tumors were induced using 4IC cells (n=6 animals/group), and mice were treated with one of the following: SCR-AO, SCR-AO+Paclitaxel, TRAF3IP2-AO, or TRAF3IP2-AO+Paclitaxel. Animals in the 4IC SCR-AO group were euthanized by day 28 due to increased tumor […]. Paclitaxel reduced tumor volume by 42% and TRAF3IP2 targeting reduced tumor size by 78%.
At first, we induced tumors using wild type 4IC cells and a similar set up described in FIG. 12. After tumor induction, each group was treated with one of the following: SCR-AO, SCR-AO and Paclitaxel, TRAF3IP2-AO, or TRAF3IP2-AO and Paclitaxel. Animals in the SCR-AO group had to be euthanized by day 28 due to increased tumor burden. Paclitaxel reduced tumor volume by 42% and TRAF3IP2 targeting reduced tumor size by 78%.

## CC(=O)O[C@H]1C(=O)[C@@]2(C)[C@H]([C@H](OC(=O)c3ccccc3)[C@]3(O)C[C@H](OC(=O)[C@H](O)[C@@H](NC(=O)c4ccccc4)c4ccccc4)C(C)=C1C3(C)C)[C@]1(OC(C)=O)CO[C@@H]1C[C@@H]2O [Paclitaxel]
4IC cells
  increase in the proportion of cells in G2: 23%
4IC tumors
  reduction of tumor volume: 42%

Reference: US20230250428A1, “Method and composition for early detection of malignancies” (Alliance of Cardiovascular Researchers, priority 2022, published 2023)
